Measured values taken from ChEMBL document CHEMBL5331074, “Design and synthesis of new adamantyl derivatives as promising antiproliferative agents” (Eur J Med Chem, 2023).
The source made the active and inactive calls. No cut-off for these calls is given here.

Experiments:
[1] = target: Ectonucleotide pyrophosphatase/phosphodiesterase family member 1 (Homo sapiens, UniProt P22413); assay: Inhibition of human NPP1 expressed in COS-7 cells using pNP-TMP as substrate preincubated for 10 mins followed by substrate addition and measured after 35 mins by microplate reader analysis; type: cell-based
Ectonucleotide pyrophosphatase/phosphodiesterase family member 1, sequence (P22413 whole entry): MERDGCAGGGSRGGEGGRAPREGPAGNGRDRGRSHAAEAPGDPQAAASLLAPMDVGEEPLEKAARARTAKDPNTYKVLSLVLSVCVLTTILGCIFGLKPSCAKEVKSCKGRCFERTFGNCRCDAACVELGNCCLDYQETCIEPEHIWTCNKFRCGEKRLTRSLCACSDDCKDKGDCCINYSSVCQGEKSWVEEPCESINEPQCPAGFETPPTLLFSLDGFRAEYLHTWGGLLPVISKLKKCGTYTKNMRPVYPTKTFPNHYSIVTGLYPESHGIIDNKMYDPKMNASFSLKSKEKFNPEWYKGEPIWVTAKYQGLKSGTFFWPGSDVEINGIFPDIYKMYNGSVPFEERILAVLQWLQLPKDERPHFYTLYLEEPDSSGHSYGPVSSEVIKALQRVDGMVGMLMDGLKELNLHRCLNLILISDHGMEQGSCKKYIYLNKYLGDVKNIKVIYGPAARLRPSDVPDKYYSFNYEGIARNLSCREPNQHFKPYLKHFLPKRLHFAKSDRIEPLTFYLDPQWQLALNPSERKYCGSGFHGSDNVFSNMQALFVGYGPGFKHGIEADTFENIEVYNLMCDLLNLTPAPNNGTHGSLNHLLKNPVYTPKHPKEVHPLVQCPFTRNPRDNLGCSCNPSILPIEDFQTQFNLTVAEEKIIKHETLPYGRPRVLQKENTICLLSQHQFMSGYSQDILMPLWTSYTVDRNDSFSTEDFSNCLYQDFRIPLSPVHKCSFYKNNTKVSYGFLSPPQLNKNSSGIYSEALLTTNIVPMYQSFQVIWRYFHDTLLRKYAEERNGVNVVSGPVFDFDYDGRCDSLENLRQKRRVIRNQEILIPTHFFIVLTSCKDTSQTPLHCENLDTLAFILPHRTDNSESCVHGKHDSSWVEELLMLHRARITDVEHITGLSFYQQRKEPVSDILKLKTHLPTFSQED

[2] = target: Ectonucleotide pyrophosphatase/phosphodiesterase family member 3 (Homo sapiens, UniProt O14638); assay: Inhibition of human NPP3 expressed in COS-7 cells using pNP-TMP as substrate preincubated for 10 mins followed by substrate addition and measured after 35 mins by microplate reader analysis; type: cell-based
Ectonucleotide pyrophosphatase/phosphodiesterase family member 3, sequence (O14638 whole entry): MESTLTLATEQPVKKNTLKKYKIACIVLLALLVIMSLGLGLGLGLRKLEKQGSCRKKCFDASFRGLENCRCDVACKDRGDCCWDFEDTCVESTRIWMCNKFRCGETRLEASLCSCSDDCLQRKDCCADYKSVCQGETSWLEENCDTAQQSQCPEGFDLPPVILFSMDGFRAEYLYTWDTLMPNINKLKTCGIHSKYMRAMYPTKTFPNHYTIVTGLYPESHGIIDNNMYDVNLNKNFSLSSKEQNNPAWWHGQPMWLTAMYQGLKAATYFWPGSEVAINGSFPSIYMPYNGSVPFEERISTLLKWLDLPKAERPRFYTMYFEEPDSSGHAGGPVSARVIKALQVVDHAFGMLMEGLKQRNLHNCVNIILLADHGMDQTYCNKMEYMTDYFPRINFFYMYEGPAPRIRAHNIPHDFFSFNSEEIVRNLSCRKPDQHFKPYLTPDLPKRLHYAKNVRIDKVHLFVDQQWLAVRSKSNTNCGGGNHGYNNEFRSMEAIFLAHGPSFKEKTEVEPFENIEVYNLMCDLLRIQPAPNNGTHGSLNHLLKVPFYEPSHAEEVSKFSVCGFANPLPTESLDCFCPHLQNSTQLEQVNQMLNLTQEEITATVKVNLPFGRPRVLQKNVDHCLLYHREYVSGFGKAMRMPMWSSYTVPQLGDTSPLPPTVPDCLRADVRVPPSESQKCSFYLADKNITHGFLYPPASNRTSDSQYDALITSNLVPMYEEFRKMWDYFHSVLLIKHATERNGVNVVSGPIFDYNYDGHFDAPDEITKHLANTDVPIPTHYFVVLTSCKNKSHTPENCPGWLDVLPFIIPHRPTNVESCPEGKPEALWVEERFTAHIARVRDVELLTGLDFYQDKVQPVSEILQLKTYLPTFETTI

[3] = test system: HT-29; assay: Cytotoxicity against human HT-29 assessed as cell growth inhibition; type: functional, cell-based
[4] = test system: HT-29; assay: Cytotoxicity against human HT-29 assessed as mean growth inhibition; type: functional
[5] = test system: HL-60(TB); assay: Cytotoxicity against human HL-60(TB) cells assessed as cell growth inhibition; type: functional, cell-based
[6] = test system: K562; assay: Cytotoxicity against human K562 cells assessed as cell growth inhibition; type: functional, cell-based
[7] = test system: RPMI-8226; assay: Cytotoxicity against human RPMI-8226 cells assessed as cell growth inhibition; type: functional, cell-based
[8] = test system: SR; assay: Cytotoxicity against human SR cells assessed as cell growth inhibition; type: functional, cell-based
[9] = test system: A549; assay: Cytotoxicity against human A549 cells assessed as cell growth inhibition; type: functional, cell-based
[10] = test system: HOP-62; assay: Cytotoxicity against human HOP-62 cells assessed as cell growth inhibition; type: functional, cell-based
[11] = test system: HOP-92; assay: Cytotoxicity against human HOP-92 cells assessed as cell growth inhibition; type: functional, cell-based
[12] = test system: NCI-H226; assay: Cytotoxicity against human NCI-H226 cells assessed as cell growth inhibition; type: functional, cell-based
[13] = test system: NCI-H23; assay: Cytotoxicity against human NCI-H23 cells assessed as cell growth inhibition; type: functional, cell-based
[14] = test system: NCI-H322M; assay: Cytotoxicity against human NCI-H322M cells assessed as cell growth inhibition; type: functional, cell-based
[15] = test system: NCI-H460; assay: Cytotoxicity against human NCI-H460 cells assessed as cell growth inhibition; type: functional, cell-based
[16] = test system: NCI-H522; assay: Cytotoxicity against human NCI-H522 cells assessed as cell growth inhibition; type: functional, cell-based
[17] = test system: COLO 205; assay: Cytotoxicity against human COLO 205 cells assessed as cell growth inhibition; type: functional, cell-based
[18] = test system: HCC 2998; assay: Cytotoxicity against human HCC 2998 cells assessed as cell growth inhibition; type: functional, cell-based
[19] = test system: HCT-116; assay: Cytotoxicity against human HCT-116 cells assessed as cell growth inhibition; type: functional, cell-based
[20] = test system: HCT-15; assay: Cytotoxicity against human HCT-15 cells assessed as cell growth inhibition; type: functional, cell-based
[21] = test system: HT-29; assay: Cytotoxicity against human HT-29 cells assessed as cell growth inhibition; type: functional, cell-based
[22] = test system: KM12; assay: Cytotoxicity against human KM12 cells assessed as cell growth inhibition; type: functional, cell-based
[23] = test system: SW-620; assay: Cytotoxicity against human SW620 cells assessed as cell growth inhibition; type: functional, cell-based
[24] = test system: SF-268; assay: Cytotoxicity against human SF-268 cells assessed as cell growth inhibition; type: functional, cell-based
[25] = test system: SF-295; assay: Cytotoxicity against human SF-295 cells assessed as cell growth inhibition; type: functional, cell-based
[26] = test system: SF-539; assay: Cytotoxicity against human SF-539 cells assessed as cell growth inhibition; type: functional, cell-based
[27] = test system: SNB-19; assay: Cytotoxicity against human SNB-19 cells assessed as cell growth inhibition; type: functional, cell-based
[28] = test system: SNB-75; assay: Cytotoxicity against human SNB-75 cells assessed as cell growth inhibition; type: functional, cell-based
[29] = test system: U-251; assay: Cytotoxicity against human U-251 cells assessed as cell growth inhibition; type: functional, cell-based
[30] = test system: LOX IMVI; assay: Cytotoxicity against human LOX IMVI cells assessed as cell growth inhibition; type: functional, cell-based
[31] = test system: Malme-3M; assay: Cytotoxicity against human Malme-3M cells assessed as cell growth inhibition; type: functional, cell-based
[32] = test system: M14; assay: Cytotoxicity against human M14 cells assessed as cell growth inhibition; type: functional, cell-based
[33] = test system: MDA-MB-435; assay: Cytotoxicity against human MDA-MB-435 cells assessed as cell growth inhibition; type: functional, cell-based
[34] = test system: SK-MEL-2; assay: Cytotoxicity against human SK-MEL-2 cells assessed as cell growth inhibition; type: functional, cell-based
[35] = test system: SK-MEL-28; assay: Cytotoxicity against human SK-MEL-28 cells assessed as cell growth inhibition; type: functional, cell-based
[36] = test system: SK-MEL-5; assay: Cytotoxicity against human SK-MEL-5 cells assessed as cell growth inhibition; type: functional, cell-based
[37] = test system: UACC-257; assay: Cytotoxicity against human UACC-257 cells assessed as cell growth inhibition; type: functional, cell-based
[38] = test system: UACC-62; assay: Cytotoxicity against human UACC-62 cells assessed as cell growth inhibition; type: functional, cell-based
[39] = test system: OVCAR-4; assay: Cytotoxicity against human OVCAR-4 cells assessed as cell growth inhibition; type: functional, cell-based
[40] = test system: OVCAR-5; assay: Cytotoxicity against human OVCAR-5 cells assessed as cell growth inhibition; type: functional, cell-based
[41] = test system: OVCAR-8; assay: Cytotoxicity against human OVCAR-8 cells assessed as cell growth inhibition; type: functional, cell-based
[42] = test system: NCI/ADR-RES; assay: Cytotoxicity against human NCI/ADR-RES cells assessed as cell growth inhibition; type: functional, cell-based
[43] = test system: SK-OV-3; assay: Cytotoxicity against human SK-OV-3 cells assessed as cell growth inhibition; type: functional, cell-based
[44] = test system: 786-0; assay: Cytotoxicity against human 786-0 cells assessed as cell growth inhibition; type: functional, cell-based
[45] = test system: A498; assay: Cytotoxicity against human A498 cells assessed as cell growth inhibition; type: functional, cell-based
[46] = test system: ACHN; assay: Cytotoxicity against human ACHN cells assessed as cell growth inhibition; type: functional, cell-based
[47] = test system: RXF 393; assay: Cytotoxicity against human RXF 393 cells assessed as cell growth inhibition; type: functional, cell-based
[48] = test system: SN12C; assay: Cytotoxicity against human SN12C cells assessed as cell growth inhibition; type: functional, cell-based
[49] = test system: TK-10; assay: Cytotoxicity against human TK-10 cells assessed as cell growth inhibition; type: functional, cell-based
[50] = test system: UO-31; assay: Cytotoxicity against human UO-31 cells assessed as cell growth inhibition; type: functional, cell-based
[51] = test system: DU-145; assay: Cytotoxicity against human DU-145 cells assessed as cell growth inhibition; type: functional, cell-based
[52] = test system: MCF7; assay: Cytotoxicity against human MCF7 cells assessed as cell growth inhibition; type: functional, cell-based
[53] = test system: MDA-MB-231; assay: Cytotoxicity against human MDA-MB-231 cells assessed as cell growth inhibition; type: functional, cell-based
[54] = test system: Hs-578T; assay: Cytotoxicity against human Hs-578T cells assessed as cell growth inhibition; type: functional, cell-based
[55] = test system: BT-549; assay: Cytotoxicity against human BT-549 cells assessed as cell growth inhibition; type: functional, cell-based
[56] = test system: T47D; assay: Cytotoxicity against human T47D cells assessed as cell growth inhibition; type: functional, cell-based
[57] = test system: MDA-MB-468; assay: Cytotoxicity against human MDA-MB-468 cells assessed as cell growth inhibition; type: functional, cell-based
[58] = Cytotoxicity against human hTERT-HME1 cells assessed as cell growth inhibition; type: toxicity, cell-based
[59] = Selectivity index, ratio of IC50 for cytotoxicity against human hTERT-HME1 cells to IC50 for cytotoxicity against human BT-549 cells
[60] = target: Autotaxin (Homo sapiens, UniProt Q13822); assay: Inhibition of human NPP2 expressed in COS-7 cells using pNP-TMP as substrate preincubated for 10 mins followed by substrate addition and measured after 35 mins by microplate reader analysis; type: cell-based
[61] = target: Carbonic anhydrase 9 (Homo sapiens, UniProt Q16790)
Description: Inhibition of Carbonic anhydrase 9 (unknown origin) using p-nitrophenyl acetate as substrate preincubated for 10 mins followed by substrate addition and measured after 30 mins by microplate reader method

O=C(Nc1ccc(OS(=O)(=O)c2ccccc2)cc1)C12CC3CC(CC(C3)C1)C2
IC50 [1]: 1.36 µM
IC50 [2]: 3 µM
inhibition [3]: Active
inhibition (INH) [4]: 85.4%
IC50 [5]: 8.39 µM
IC50 [6]: 0.32 µM
IC50 [7]: 0.4 µM
IC50 [8]: 0.58 µM
IC50 [9]: 6.9 µM
IC50 [10]: > 100 µM
IC50 [11]: 1.87 µM
IC50 [12]: 27.7 µM
IC50 [13]: 6.68 µM
IC50 [14]: > 100 µM
IC50 [15]: 6.1 µM
IC50 [16]: 4.36 µM
IC50 [17]: 0.87 µM
IC50 [18]: 5.48 µM
IC50 [19]: 2.5 µM
IC50 [20]: 1 µM
IC50 [21]: 0.4 µM
IC50 [22]: 2.1 µM
IC50 [23]: 1.97 µM
IC50 [24]: > 100 µM
IC50 [25]: 8.27 µM
IC50 [26]: 0.96 µM
IC50 [27]: > 100 µM
IC50 [28]: 7.16 µM
IC50 [29]: 4.81 µM
IC50 [30]: 4.38 µM
IC50 [31]: > 100 µM
IC50 [32]: 7.2 µM
IC50 [33]: > 100 µM
IC50 [34]: > 100 µM
IC50 [35]: > 100 µM
IC50 [36]: 3.12 µM
IC50 [37]: 13.5 µM
IC50 [38]: 6.47 µM
IC50 [39]: 8.38 µM
IC50 [40]: > 100 µM
IC50 [41]: > 100 µM
IC50 [42]: 5.75 µM
IC50 [43]: > 100 µM
IC50 [44]: 3.8 µM
IC50 [45]: 2.04 µM
IC50 [46]: > 100 µM
IC50 [47]: 5.12 µM
IC50 [48]: > 100 µM
IC50 [49]: > 100 µM
IC50 [50]: 18.7 µM
IC50 [51]: > 100 µM
IC50 [52]: 3.26 µM
IC50 [53]: 3.79 µM
IC50 [54]: 7.29 µM
IC50 [55]: 3.24 µM
IC50 [56]: 3.57 µM
IC50 [57]: 3.8 µM
IC50 [58]: > 50 µM
Ratio IC50 [59]: 15.4
IC50 [60]: 1.35 µM
IC50 [61]: 1.02 µM

O=C(Nc1ccc(OS(=O)(=O)c2ccc(F)cc2)cc1)C12CC3CC(CC(C3)C1)C2
IC50 [1]: 1.13 µM
IC50 [2]: 0.74 µM
inhibition [3]: Active
inhibition (INH) [4]: 63.5%
IC50 [5]: 2.68 µM
IC50 [6]: 0.58 µM
IC50 [7]: 2.15 µM
IC50 [8]: 3.6 µM
IC50 [9]: 2.3 µM
IC50 [10]: 11.1 µM
IC50 [11]: 1.06 µM
IC50 [12]: 19.2 µM
IC50 [13]: 7.71 µM
IC50 [14]: 5.55 µM
IC50 [15]: 2.3 µM
IC50 [16]: 3.39 µM
IC50 [17]: 0.58 µM
IC50 [18]: 7.95 µM
IC50 [19]: 0.63 µM
IC50 [20]: 0.42 µM
IC50 [21]: 0.2 µM
IC50 [22]: 0.72 µM
IC50 [23]: 0.41 µM
IC50 [24]: 20.8 µM
IC50 [25]: 1.81 µM
IC50 [26]: 0.76 µM
IC50 [27]: 15.7 µM
IC50 [28]: 1.97 µM
IC50 [29]: 19.4 µM
IC50 [30]: 7.57 µM
IC50 [31]: 4.07 µM
IC50 [32]: 6.02 µM
IC50 [33]: 7.8 µM
IC50 [34]: 10.5 µM
IC50 [35]: 28.7 µM
IC50 [36]: 3.61 µM
IC50 [37]: 3.4 µM
IC50 [38]: 3.14 µM
IC50 [39]: 1.61 µM
IC50 [40]: 28.8 µM
IC50 [41]: 12.8 µM
IC50 [42]: 0.94 µM
IC50 [43]: 7.83 µM
IC50 [44]: 5.08 µM
IC50 [45]: 0.28 µM
IC50 [46]: 15.7 µM
IC50 [47]: 4.76 µM
IC50 [48]: 19 µM
IC50 [49]: 20.2 µM
IC50 [50]: 3.43 µM
IC50 [51]: 10.6 µM
IC50 [52]: 0.59 µM
IC50 [53]: 1.87 µM
IC50 [54]: 2.29 µM
IC50 [55]: 4.28 µM
IC50 [56]: 0.83 µM
IC50 [57]: 1.01 µM
IC50 [58]: > 50 µM
Ratio IC50 [59]: 11.7
IC50 [60]: 1.07 µM
IC50 [61]: 0.33 µM
